What is called IC50 is the concentration that gives 50% inhibition.

Read-outs that look alike come from different tables or passages of the source.

One assay has as its system RS4;11 cells. The experiment in a line: Cell proliferation assay (MTS), RS4;11 cells, 72 h. The assay is classed as cell-based. The source says: Cell Proliferation Assays
MTS testing kit was purchased from Promega. The RPMI-1640, Fetal bovine serum and Penicillin-Streptomycin were purchased from Gibco. Dimethyl sulfoxide (DMSO) was purchased from Sigma.
To investigate whether a compound is able to inhibit the activity of BCL-2 in cells, a mechanism-based assay using DOHH2 (DSMZ No.® ACC 47) and RS4;11 (ATCC® CRL-1873™) cell was developed. In this assay, inhibition of Bcl-2 was detected by the inhibition of DOHH2 cells proliferation. DOHH2 cells were cultured in culture flasks to 40-80% confluence in RPMI-1640 plus 10% fetal bovine serum. Cells were collected and plated onto 96-well plates at desired cell density (5000 cells/well). Plates were incubated overnight at 37° C., with 5% CO2 to adhere. Compounds were added to the plates, and the final compound concentrations were 10000, 3333, 1111, […], 124, 41, 14, 4.6 and 1.5 nM. Plates plated with DOHH2 or RS4;11 cells were placed at 37° C., with 5% CO2 for 120 h (DOHH2) or 72 h (RS4;11) respectively. 20 μl MTS/100 μl medium mixture solution were added to each well and incubate the plates for exactly 2 hours. The reaction was stopped by adding 25 μl 10% SDS per well. Measure absorbance at 490 nm and 650 nm (reference wavelength). IC50 was calculated using GraphPad Prism 5.0.
Select compounds prepared as described above were assayed according to the biological procedures described herein.

The subject of another assay is DOHH2 cells. As to the kind of experiment: Cell proliferation assay (MTS), DOHH2 cells, 120 h. The assay is classed as cell-based. Put shortly: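 Proliferation was scored by MTS (2 h, then SDS stop, A490 with 650 nm reference) and IC50 derived. Compound ran at nine final concentrations from 1.5 to 10000 nM. DOHH2 were incubated 120 h and RS4;11 72 h, both plated at 5000 cells/well in RPMI-1640 plus 10% FBS.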

Consider `CC1(C)CCC(CN2CCN(c3ccc(C(=O)NS(=O)(=O)c4cc5c(c([N+](=O)[O-])c4)N[C@H](CN4CCC(N=S(C)(C)=O)CC4)CO5)c(Oc4cnc5[nH]ccc5c4)c3)CC2)=C(c2ccc(Cl)cc2)C1` [Example 2-150], for which the concentration for half-maximal inhibition (IC50) is 45 nM in the assay on RS4;11 cells (Homo sapiens, RS4-11, 72 h) and 67 nM in the assay with DOHH2 cells (Homo sapiens, DOHH-2, 120 h).

As for `CC1(C)CCC(CN2CCN(c3ccc(C(=O)NS(=O)(=O)c4cc5c(c([N+](=O)[O-])c4)N[C@H](CN4CCP(C)(=O)CC4)CO5)c(Oc4cnc5[nH]ccc5c4)c3)CC2)=C(c2ccc(Cl)cc2)C1` [Example 2-154, (R)-2-((1H-pyrrolo[2,3-b]pyridin-5-yl)oxy)-4-(4-((4′-chloro-5,5-dimethyl-3,4,5,6-tetra-hydro-[1,1′-biphenyl]-2-yl)methyl)piperazin-1-yl)-N-((3-((4-methyl-4-oxido-1,4-aza-phosphinan-1-yl)methyl)-5-nitro-3,4-dihydro-2H-benzo[b][1,4]oxazin-7-yl)sulfonyl) benzamide], the IC50 in the assay with RS4;11 cells (Homo sapiens, RS4-11, 72 h) worked out at 24 nM; with DOHH2 cells (Homo sapiens, DOHH-2, 120 h), 201 nM.

As for `CN1CCN(CC[C@H]2COc3cc(S(=O)(=O)NC(=O)c4ccc(N5CCN(CC6=C(c7ccc(Cl)cc7)CC(C)(C)CC6)CC5)cc4Oc4cnc5[nH]ccc5c4)cc([N+](=O)[O-])c3N2)CC1` [Example 2-9, (S)-2-((1H-pyrrolo[2,3-b]pyridin-5-yl)oxy)-4-(4-((4′-chloro-5,5-dimethyl-3,4,5,6-tetra-hydro-[1,1′-biphenyl]-2-yl)methyl)piperazin-1-yl)-N-((3-(2-(4-methylpiperazin-1-yl)eth-yl)-5-nitro-3,4-dihydro-2H-benzo[b][1,4]oxazin-7-yl)sulfonyl)benzamide], the half-inhibitory concentration (IC50) with RS4;11 cells (Homo sapiens, RS4-11, 72 h) turned out to be 10 nM; in the assay on DOHH2 cells (Homo sapiens, DOHH-2, 120 h), 33 nM.

Take `CC1(C)CCC(CN2CCN(c3ccc(C(=O)NS(=O)(=O)c4cc5c(c([N+](=O)[O-])c4)N[C@@H](CCN=S4(=O)CCOCC4)CO5)c(Oc4cnc5[nH]ccc5c4)c3)CC2)=C(c2ccc(Cl)cc2)C1` [Example 2-78, (S)-2-((1H-pyrrolo[2,3-b]pyridin-5-yl)oxy)-4-(4-((4′-chloro-5,5-dimethyl-3,4,5,6-tetra-hydro-[1,1′-biphenyl]-2-yl)methyl)piperazin-1-yl)-N-((5-nitro-3-(2-((4-oxido-1,4λ^6-ox-athian-4-ylidene)amino)ethyl)-3,4-dihydro-2H-benzo[b][1,4]oxazin-7-yl)sulfonyl)ben-zamide]: the IC50 turned out to be 6 nM in the assay with RS4;11 cells (Homo sapiens, RS4-11, 72 h) and 15 nM in the assay with DOHH2 cells (Homo sapiens, DOHH-2, 120 h).

With `CCC(=O)N1CCN(C[C@H]2COc3cc(S(=O)(=O)NC(=O)c4ccc(N5CCN(CC6=C(c7ccc(Cl)cc7)CC(C)(C)CC6)CC5)cc4Oc4cnc5[nH]ccc5c4)cc([N+](=O)[O-])c3N2)CC1` [Example 2-97, (S)-2-((1H-pyrrolo[2,3-b]pyridin-5-yl)oxy)-4-(4-((4′-chloro-5,5-dimethyl-3,4,5,6-tetra-hydro-[1,1′-biphenyl]-2-yl)methyl)piperazin-1-yl)-N-((5-nitro-3-((4-propionylpiperazin-1-yl)methyl)-3,4-dihydro-2H-benzo[b] [1,4]oxazin-7-yl)sulfonyl)benzamide], the IC50 amounted to 23 nM with RS4;11 cells (Homo sapiens, RS4-11, 72 h) and 23 nM with DOHH2 cells (Homo sapiens, DOHH-2, 120 h).

As for `CC1(C)CCC(CN2CCN(c3ccc(C(=O)NS(=O)(=O)c4cc5c(c([N+](=O)[O-])c4)N[C@@H](CN4CCC(N=S(C)(C)=O)CC4)CO5)c(Oc4cnc5[nH]ccc5c4)c3)CC2)=C(c2ccc(Cl)cc2)C1` [Example 2-125, (S)-2-((1H-pyrrolo[2,3-b]pyridin-5-yl)oxy)-4-(4-((4′-chloro-5,5-dimethyl-3,4,5,6-tetra-hydro-[1,1′-biphenyl]-2-yl)methyl)piperazin-1-yl)-N-((3-((4-((dimethyl(oxo)-λ^6-sulfanyl-idene)amino)piperidin-1-yl)methyl)-5-nitro-3,4-dihydro-2H-benzo[b][1,4]oxa-zin-7-yl)sulfonyl)benzamide], the concentration for half-maximal inhibition (IC50) turned out to be 19 nM in the assay on RS4;11 cells (Homo sapiens, RS4-11, 72 h) and 43 nM in the assay with DOHH2 cells (Homo sapiens, DOHH-2, 120 h).

On to `CC1(C)CCC(CN2CCN(c3ccc(C(=O)NS(=O)(=O)c4cc5c(c([N+](=O)[O-])c4)N[C@@H](CCN=S(C)(C)=O)CO5)c(Oc4cnc5[nH]ccc5c4)c3)CC2)=C(c2ccc(Cl)cc2)C1` [Example 2-43, (S)-2-((1H-pyrrolo[2,3-b]pyridin-5-yl)oxy)-4-(4-((4′-chloro-5,5-dimethyl-3,4,5,6-tetra-hydro-[1,1′-biphenyl]-2-yl)methyl)piperazin-1-yl)-N-((3-(2-((dimethyl(oxo)-l6-sulfanyl-idene)amino)ethyl)-5-nitro-3,4-dihydro-2H-benzo[b][1,4]oxazin-7-yl)sulfonyl)benza-mide], for which the IC50 with RS4;11 cells came out at 1 nM; in the assay with DOHH2 cells, 10 nM.

Regarding `COC(=O)N1CCN(C[C@H]2COc3cc(S(=O)(=O)NC(=O)c4ccc(N5CCN(CC6=C(c7ccc(Cl)cc7)CC(C)(C)CC6)CC5)cc4Oc4cnc5[nH]ccc5c4)cc([N+](=O)[O-])c3N2)CC1` [Example 2-98, methyl (S)-4-((7-(N-(2-((1H-pyrrolo[2,3-b]pyridin-5-y)oxy)-4-(4-((4′-chloro-5,5-dimethyl-3,4,5,6-tetrahydro[1,1′-biphenyl]-2-yl)methyl)piperazin-1-yl)benzoyl)sulfamoyl)-5-nitro-3,4-dihydro-2H-benzo[b][1,4]oxazin-3-yl)methyl)piperazine-1-carboxylate], the IC50 in the assay on RS4;11 cells (Homo sapiens, RS4-11, 72 h) turned out to be 17 nM; in the assay on DOHH2 cells (Homo sapiens, DOHH-2, 120 h), 38 nM.

Regarding `CN=S1(=O)CCN(CC[C@@H]2COc3cc(S(=O)(=O)NC(=O)c4ccc(N5CCN(CC6=C(c7ccc(Cl)cc7)CC(C)(C)CC6)CC5)cc4Oc4cnc5[nH]ccc5c4)cc([N+](=O)[O-])c3N2)CC1` [Example 2-127], the IC50 in the assay on RS4;11 cells (Homo sapiens, RS4-11, 72 h) came to 23 nM; in the assay with DOHH2 cells (Homo sapiens, DOHH-2, 120 h), 42 nM.

Consider `CC1(C)CCC(CN2CCN(c3ccc(C(=O)NS(=O)(=O)c4cc5c(c([N+](=O)[O-])c4)N[C@H](CS(C)(=O)=O)CO5)c(Oc4cnc5[nH]ccc5c4)c3)CC2)=C(c2ccc(Cl)cc2)C1` [Example 2-145, (S)-2-((1H-pyrrolo[2,3-b]pyridin-5-yl)oxy)-4-(4-((4′-chloro-5,5-dimethyl-3,4,5,6-tetra-hydro-[1,1′-biphenyl]-2-yl)methyl)piperazin-1-yl)-N-((3-((methylsulfonyl)methyl)-5-nitro-3,4-dihydro-2H-benzo[b][1,4]oxazin-7-yl)sulfonyl)benzamide], for which the half-inhibitory concentration (IC50) was 1 nM with RS4;11 cells (Homo sapiens, RS4-11, 72 h) and 87 nM in the assay with DOHH2 cells (Homo sapiens, DOHH-2, 120 h).

As to `C[C@@H]1CN(C[C@H]2COc3cc(S(=O)(=O)NC(=O)c4ccc(N5CCN(CC6=C(c7ccc(Cl)cc7)CC(C)(C)CC6)CC5)cc4Oc4cnc5[nH]ccc5c4)cc([N+](=O)[O-])c3N2)CCO1` [Example 2-32, 2-((1H-pyrrolo[2,3-b]pyridin-5-yl)oxy)-4-(4-((4′-chloro-5,5-dimethyl-3,4,5,6-tetrahydro-[1,1′-biphenyl]-2-yl)methyl)piperazin-1-yl)-N-(((S)-3-(((R)-2-methylmorpholino)meth-yl)-5-nitro-3,4-dihydro-2H-benzo[b][1,4]oxazin-7-yl)sulfonyl)benzamide], the half-inhibitory concentration (IC50) came out at 18 nM with RS4;11 cells (Homo sapiens, RS4-11, 72 h) and 34 nM in the assay with DOHH2 cells (Homo sapiens, DOHH-2, 120 h).

Regarding `COCC[C@@H]1CSc2cc(S(=O)(=O)NC(=O)c3ccc(N4CCN(CC5=C(c6ccc(Cl)cc6)CC(C)(C)CC5)CC4)cc3Oc3cnc4[nH]ccc4c3)cc([N+](=O)[O-])c2N1` [Example 3-12, (R)-2-((1H-pyrrolo[2,3-b]pyridin-5-yl)oxy)-4-(4-((4′-chloro-5,5-dimethyl-3,4,5,6-tetra-hydro-[1,1′-biphenyl]-2-yl)methyl)piperazin-1-yl)-N-((3-(2-methoxyethyl)-5-nitro-3,4-dihydro-2H-benzo[b][1,4]thiazin-7-yl)sulfonyl)benzamide], the IC50 worked out at 84 nM in the assay on RS4;11 cells (Homo sapiens, RS4-11, 72 h) and 120 nM in the assay with DOHH2 cells (Homo sapiens, DOHH-2, 120 h).

Turning to `C[C@@H]1CN(C[C@H]2COc3cc(S(=O)(=O)NC(=O)c4ccc(N5CCN(CC6=C(c7ccc(Cl)cc7)CC(C)(C)CC6)CC5)cc4Oc4cnc5[nH]ccc5c4)cc([N+](=O)[O-])c3N2)CCN1C1COC1` [Example 2-29, 2-((1H-pyrrolo[2,3-b]pyridin-5-yl)oxy)-4-(4-((4′-chloro-5,5-dimethyl-3,4,5,6-tetrahydro-[1,1′-biphenyl]-2-yl)methyl)piperazin-1-yl)-N-(((S)-3-(((R)-3-methyl-4-(oxetan-3-yl)piperazin-1-yl)methyl)-5-nitro-3,4-dihydro-2H-benzo[b][1,4]oxazin-7-yl)sulfonyl) benzamide], the IC50 in the assay with RS4;11 cells (Homo sapiens, RS4-11, 72 h) worked out at 1 nM; in the assay on DOHH2 cells (Homo sapiens, DOHH-2, 120 h), 7 nM.

Regarding `CC1(C)CCC(CN2CCN(c3ccc(C(=O)NS(=O)(=O)c4cc5c(c([N+](=O)[O-])c4)N[C@H](CCN4CCS(=O)(=O)CC4)CO5)c(Oc4cnc5[nH]ccc5c4)c3)CC2)=C(c2ccc(Cl)cc2)C1` [Example 2-126, (R)-2-((1H-pyrrolo[2,3-b]pyridin-5-yl)oxy)-4-(4-((4′-chloro-5,5-dimethyl-3,4,5,6-tetra-hydro-[1,1′-biphenyl]-2-yl)methyl)piperazin-1-yl)-N-((3-(2-(1,1-dioxidothiomorpholino)ethyl)-5-nitro-3,4-dihydro-2H-benzo[b] [1,4]oxazin-7-yl)sulfonyl)benzamide], the 50% inhibitory concentration (IC50) is 5 nM in the assay on RS4;11 cells (Homo sapiens, RS4-11, 72 h) and 11 nM with DOHH2 cells (Homo sapiens, DOHH-2, 120 h).
